Experimental data from US11813280B2, “Reducing beta-catenin and IDO expression to potentiate immunotherapy” (Dicerna Pharmaceuticals, Inc., priority 2018, dated 2023).
Entries after “also recorded” stand apart in the source; their conditions may differ.

Legend:
[1] = tested on: MMTV-Wnt tumors; experiment: Immunohistochemistry of MMTV-Wnt tumors for β-catenin, CD8 and IDO1; assay type: in vivo, mice; settings: IDOi 30 mg/kg per dose twice a day for 3 consecutive days; tumors 24 hours after last dose
Procedure: In the MMTV-Wnt mouse model, mammary gland specific overexpression of Wnt1 with MMTV-LTR leads to spontaneous breast tumors with activated Wnt/β-catenin signaling. MMTV-Wnt mammary tumors spontaneously grow in mice in 3-6 months from the time of birth with Wnt pathway activation.
To see the effect of β-catenin inhibition on T cell infiltration and IDO1 levels in spontaneous tumors, the MMTV-Wnt1 model was used. The tumors were collected 24 hours after the last dose and subjected to immunohistochemistry to determine β-catenin, CD8, and IDO1 levels.
Tumors were collected 24 hours after the last dose and subjected to immunohistochemistry to determine β-catenin, CD8 and IDO1 levels.

[2] = tested on: B16F10 tumors; experiment: Immunohistochemistry of B16F10 tumors for β-catenin, CD8 and IDO1; assay type: in vivo, C57BL/6 mice; settings: IDOi orally twice daily 100 mg/kg per dose days 7 and 9, tumors 48 hours after last dose, vs vehicle
[3] = tested on: 4T1 tumors; experiment: 4T1 tumor growth study; assay type: in vivo, Balb/C mice
Procedure: (§1) 6-8-week-old immunocompetent mice (C57BL/6 or Balb/C) were injected subcutaneously with 1.5×10^6B16F10 or 1.5×10^6 4T1 tumor cells under the right shoulder. Tumor volume was measured every 2-3 days a week to monitor tumor growth. Dosing was initiated when the tumors reached about 150-200 mm^3. […] BCAT1 formulated LNP or Placebo (scrambled CTNNB1 dsRNAi) formulated LNP was given intravenously via lateral tail vein at a total volume of 10 ml/kg. Immunotherapy treatments (anti-PD-1 antibody) were given intraperitoneally at a volume of 10 ml/kg.
(§2) Mouse cell lines B16F10 and 4T1 cells were obtained from ATCC (Manassas, Va.) and grown in RPMI/DMEM medium supplemented with 10% FBS. B16F10 cells is a murine melanoma cell line with no Wnt activation or IDO1 activation. 4T1 is a murine breast cell line with Wnt activation and constitutive activation of IDO1.
In another study, 4T1 tumor cells were implanted in Balb/C mice and 4 days post-implant, the mice were randomized into two groups and treated with placebo or BCAT1. This dosing cycle was then repeated on days 9 and 10. Tumor growth was monitored by measuring the tumor sizes over the course of the treatment period. […] FIG. 1C.
Tumors were collected 48 hours after the last dose and were subjected to immunohistochemistry to look at β-catenin, CD8 and IDO1 levels. […] FIG. 3B. FIG. 3B. […] Tumor growth was monitored by measuring the tumor sizes over the course of the treatment period. […] FIG. 3C.

[4] = tested on: metastatic or recurrent squamous cell carcinoma of the head and neck, advanced urothelial cell carcinoma, and advanced renal cell carcinoma; settings: epacadostat combination; cited from earlier work
[5] = tested on: B16F10 tumors; experiment: B16F10 tumor growth study; assay type: in vivo, C57BL/6 mice; settings: IDOi twice daily 100 mg/kg per dose days 7 and 9; 100 mg/kg
Procedure: as §1, §2
In a similar study, B16F10 tumor cells were implanted in C57BL/6 mice and at day 5 post-implant, the mice were randomized into two groups and treated with placebo or BCAT1. This dosing cycle was then repeated on days 11 and 12. Tumor growth was monitored by measuring the tumor sizes over the course of the treatment period. […] FIG. 6C.
Tumor growth was monitored by measuring the tumor sizes over the course of the treatment period. […] FIG. 8C. […]

[6] = tested on: 4T1 tumors; experiment: Immunohistochemistry of 4T1 tumors for β-catenin, CD8 and IDO1; assay type: in vivo, Balb/C mice; settings: IDOi orally twice daily 100 mg/kg per dose days 6 and 8, tumors 48 hours after last dose, vs vehicle
[7] = tested on: melanoma; settings: epacadostat in combination with the PD-1 inhibitors pembrolizumab and nivolumab; Phase I/II; cited from earlier work

NS(=O)(=O)NCCNc1nonc1C(=NO)Nc1ccc(F)c(Br)c1 [IDOi, epacadostat]
CD8 levels (immunohistochemistry) [1]: increases | IDO1 levels (immunohistochemistry) [1]: reduced the IDO1 levels almost completely; also recorded: reduces | β-catenin levels (immunohistochemistry) [1]: increases | CD8 levels / CD8 T-cell infiltration (immunohistochemistry) [2]: increases | IDO1 levels (immunohistochemistry) [2]: reduced the IDO1 levels almost completely; also recorded: decreases | β-catenin levels (immunohistochemistry) [2]: decreases | tumor growth as compared to placebo ([3]; IDOi alone twice daily at 100 mg/kg per day on days 6 and 8 post-implant, 100 mg/kg/day): tumor growth inhibition; also recorded: inhibits tumor growth | anti-tumor efficacy (tumor volume) ([3]; IDOi orally 100 mg/kg per dose twice daily days 4 and 6, BCAT1 iv 3 mg/kg days 5 and 6, anti-PD-1 antibody ip 5 mg/kg days 7 and 8, single, double or triple agents): modest anti-tumor efficacy | efficacy in other tumors [4]: shown efficacy | tumor growth inhibition vs vehicle [5]: did not result in any significant tumor growth inhibition; also recorded: does not significantly inhibit tumor growth | CD8 levels / CD8 T-cell infiltration (immunohistochemistry) [6]: only modestly altered; also recorded: increases | IDO1 levels (immunohistochemistry) [6]: reduced the IDO1 levels almost completely; also recorded: decreases | β-catenin levels (immunohistochemistry) [6]: only modestly altered; also recorded: decreases | clinical results in patients with melanoma [7]: positive early results
